In patent publication US8178574B2, “Tosylate salt of trans-N-isobutyl-3-fluoro-3-[3-fluoro-4-(pyrrolidin-1-yl-methyl)-phenyl] cyclobut anecarboxamide” (Pfizer Inc., priority 2007, dated 2012):
Structures can show the parent of a compound that is named as a salt.

Key:
[1] = Aqueous solubility of the crystalline compound (RP-HPLC after temperature cycling); type: physicochemical; details: for solubility thermodynamic at 25 h: aqueous buffer
Method: The following information was determined in regard of aqueous solubility. […] These values represent the solubility of the crystalline compound determined via RP-HPLC analysis after subjecting the drug media mixture to a temperature cycling program (40° C. for 8 hours, 15° C. for 5 hours, and 25° C. for 12 hours).

[2] = Hygroscopicity by dynamic vapor sorption (VTI, kinetic experiment); type: physicochemical
Method: Hygroscopicity was assessed using a dynamic vapor sorption technique in which an accurately weighed sample is subjected to progressively changing water vapor pressure while simultaneously recording the weight change. The experiment is conducted isothermally at 25° C.
During the initial drying cycle (25° C., 1-3% RH), approximately 0.8% weight loss was observed, which is consistent with an anhydrous form. The sample gained 0.5% of its original weight when exposed to relative humidities from 0% to 90% at 25° C. (CQG≦2% wt. gain at 90% RH). […] FIG. 5 (VTI Moisture Sorption Data) reports results achieved in a step isotherm at a heating rate of 1° C./minute.

CC(C)CNC(=O)[C@H]1C[C@@](F)(c2ccc(CN3CCCC3)c(F)c2)C1 [tosylate salt of the invention]
solubility ([1]; 0.1M phosphate buffered saline with 0.5 weight percent sodium taurocholate/phosphatidyl choline salts, final pH 7.4): 7.0 mgA/mL
solubility thermodynamic at 25 h ([1]; 0.1M phosphate buffered saline, final pH 6.3, temperature cycling 40/15/25° C.): 5000 µg/mL
solubility thermodynamic at 25 h ([1]; unbuffered water, final pH 4.7): 8400 µg/mL
weight loss during initial drying cycle ([2]; 25° C., 1-3% RH): approximately 0.8%
hygroscopicity (in words) ([2]; kinetic experiment (VTI), 25° C.): very slightly hygroscopic
weight gain (of original weight) ([2]; relative humidities from 0% to 90% at 25° C.): 0.5%
